According to US20240391954A1, “MC4R AGONIST PEPTIDES” (The Regents of the University of Michigan, priority 2021, published 2024):
Positions of bridges follow the written chain, without caps; N, C: chain ends. Non-standard residues stand in square brackets, D forms with d. Residues, ends and D or L forms follow the SMILES beside them. NMeW = CN[C@@H](Cc1c[nH]c2ccccc12)C(=O)O; NMeH = CN[C@@H](Cc1c[nH]cn1)C(=O)O; 3Pal = N[C@@H](Cc1cccnc1)C(=O)O; Cit = NC(=O)NCCC[C@H](N)C(=O)O; NMeA = CN[C@@H](C)C(=O)O; Nle = CCCC[C@H](N)C(=O)O; Aib = CC(C)(N)C(=O)O

How the values were obtained:
Assay type in all cases: cell-based
human MC3R = target: T1, human MC3R (Homo sapiens, UniProt P41968); test: split-luciferase cAMP sensor assay, agonist mode (measurement window 1), hMC3R; settings: for Emax / MC3R cAMP % max activation: % maximal activation; for Emax / EC50 / MC3R cAMP % max activation: agonist mode; for Emax: read-out: MC3R cAMP % max activation; for EC50: HEK-293 cells stably expressing hMC3R, read-out: MC3R cAMP EC50; for MC4R selectivity vs MC3R: MC4R versus MC3R
T1 construct: expressed in transfected cells; host or cells: HEK-293 cells stably expressing the GScAMP22F split-luciferase cAMP sensor (parent reporter line from Promega); MC3R clone generated in-house, G418 selection
How it was run: (§1)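 Live stable cell lines carrying receptor plus GloSensor cAMP22f split-luciferase, loaded with 4% D-luciferin in serum-free medium (~1% serum estimated during assay). Luminescence recorded during in-line peptide addition; direct agonist effect read in window 1, with 20 μM forskolin as normalization reference. EC50 from four-parameter sigmoid fit.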

human MC4R = target: T2, human MC4R (Homo sapiens, UniProt P32245); test: split-luciferase cAMP sensor assay, agonist mode (measurement window 1), hMC4R; settings: agonist mode; for Emax / MC4R cAMP % max activation: % maximal activation; for Emax: read-out: MC4R cAMP % max activation; for EC50: HEK-293 cells stably expressing hMC4R, read-out: MC4R cAMP EC50
T2 construct: host or cells: HEK-293 cells stably expressing the GScAMP22F split-luciferase cAMP sensor and hMC4R, G418 selection
How it was run: as §1

human MC1R = target: T3, human MC1R (Homo sapiens, UniProt Q01726); test: split-luciferase cAMP sensor assay, agonist mode, hMC1R; settings: MC4R versus MC1R
T3 construct: expressed in transfected cells; host or cells: HEK-293 cells stably expressing hMC1R and the GScAMP22F cAMP sensor
Protocol: FIG. 4A-B. (A) Pharmacological properties of exemplary MC4R agonist peptides, including those with improved efficacy in the MC4R+/− mouse (CTX-1211, CTX-1227, and CTX-1228). Concentration-response agonist curves for peptides indicated at the human MC4R (red), human MC3R (blue), human MC5R (green), and human MC1R (black) were determined by a split-luciferase cAMP sensor dynamic assay in HEK-293 cells stably expressing the hMC1R, hMC3R, hMC4R, or hMC5R and the GScAMP22F cAMP sensor. Each data point represents the mean±SEM of two experiments with three replicates each per experiment. Data is normalized to the ECmax of α-MSH. (B) Same as above, for peptides representing reduced activity at the hMC1R. Inset tables indicate EC50 values for the ligand indicated for each receptor.
The assay for the determination of the cAMP response in live cells was described previously. (Yu et al., 2020, Science 368, 428-433; incorporated by reference in its entirety). Cells were seeded at a density of 20,000 cells per well using 384-well poly-D lysine-coated, clear bottom, and black-wall assay plates (Corning Inc. Corning, NJ). Cells were allowed to attach to the plates for 18 to 24 h after which growth media was removed and 20 μl of 4% D-luciferin (Promega) in CO2 independent, serum-free medium (Thermo Fisher Scientific) was added to each well. The luciferase substrate was allowed to permeate the cells for 120 min at 37° C. Intracellular cAMP levels were measured using an FDSS 7000EX Functional Drug Screening System (Hamamatsu Photonics, Hamamatsu, Japan) in the Center for Chemical Genomics at the Life Sciences Institute. This instrument allowed the in-line addition of test-peptides and receptor agonists while simultaneously acquiring the luminescence signal from live cells. Assay read steps were set as follows: baseline acquisition of 2 min, the addition of 10 μl of varying 3× concentrations of test-peptides or vehicle followed by 11 min measurement (measurement window 1), and 10 μl addition of 4× concentration of the endogenous melanocortin agonist α-MSH (Bachem, Bubendorf, Switzerland) followed by an additional 11 min response measurement (measurement window 2). The resulting final concentration of α-MSH was close to the respective receptor EC90 dose for each receptor. Intraplate concentration response curves for α-MSH and SHU-9119 (Phoenix Pharmaceuticals, Burlingame CA) were included as reference controls. A submaximal forskolin (20 μM) concentration was also included to serve as a normalization reference to account for cell number variations and differences in assay transducer efficiency between cell lines.
With this set up it was possible to evaluate the direct effect of the test-peptides on the MC3R and MC4R cell lines during measurement window 1, while the antagonist profile in the presence of EC90 α-MSH was determined on measurement window 2. For data analysis baseline luminescence (i.e. the maximum luminescence signal from the initial 0 to 2 min window) was subtracted from the maximum luminescence obtained during measurement window 1 (2 to 13 min) and measurement window 2 (13 to 24 min) to yield the test-peptide elicited responses. EC50 or IC50 potency values were determined by non-linear regression by fitting the data to a sigmoid four-parameter variable slope model using the GraphPad Prism version 8.4 software package (San Diego CA).

T3 sequence (Q01726 whole entry): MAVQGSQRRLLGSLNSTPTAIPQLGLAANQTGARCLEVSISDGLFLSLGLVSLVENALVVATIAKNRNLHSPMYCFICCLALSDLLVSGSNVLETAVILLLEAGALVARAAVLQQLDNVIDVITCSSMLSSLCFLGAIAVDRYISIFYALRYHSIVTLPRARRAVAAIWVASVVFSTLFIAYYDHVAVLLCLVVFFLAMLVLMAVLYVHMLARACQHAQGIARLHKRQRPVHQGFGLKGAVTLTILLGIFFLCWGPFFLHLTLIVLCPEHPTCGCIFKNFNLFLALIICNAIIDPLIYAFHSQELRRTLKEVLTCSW
T2 sequence (P32245 whole entry): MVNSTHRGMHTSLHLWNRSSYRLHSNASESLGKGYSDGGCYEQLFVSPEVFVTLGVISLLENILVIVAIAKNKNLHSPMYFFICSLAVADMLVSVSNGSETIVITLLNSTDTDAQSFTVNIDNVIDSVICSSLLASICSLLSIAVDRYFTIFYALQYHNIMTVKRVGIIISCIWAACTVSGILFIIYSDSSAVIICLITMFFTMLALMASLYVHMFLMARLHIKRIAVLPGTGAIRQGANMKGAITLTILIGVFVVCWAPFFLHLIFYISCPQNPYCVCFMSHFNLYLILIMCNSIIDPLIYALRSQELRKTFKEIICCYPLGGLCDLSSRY
T1 sequence (P41968 whole entry): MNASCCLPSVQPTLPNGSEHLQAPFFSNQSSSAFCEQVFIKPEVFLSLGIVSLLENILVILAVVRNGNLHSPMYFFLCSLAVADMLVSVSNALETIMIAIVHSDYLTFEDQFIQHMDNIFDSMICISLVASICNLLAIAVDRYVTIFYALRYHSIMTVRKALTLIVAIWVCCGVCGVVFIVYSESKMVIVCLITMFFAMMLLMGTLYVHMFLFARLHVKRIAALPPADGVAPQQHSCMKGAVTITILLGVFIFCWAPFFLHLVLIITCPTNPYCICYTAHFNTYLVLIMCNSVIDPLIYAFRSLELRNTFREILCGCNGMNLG

Compound | Emax (human MC3R) [%] | EC50 (human MC3R) [nM] | MC4R selectivity vs MC3R (human MC3R) | Emax (human MC4R) [%] | MC4R selectivity vs MC1R (human MC1R) | EC50 (human MC4R) [nM] | MC3R cAMP % max activation (human MC3R) | MC4R cAMP % max activation (human MC4R)
CC(=O)N[C@@H](CCCNC(=N)N)C(=O)N[C@H]1CSSC[C@@H](C(N)=O)NC(=O)[C@@H](Cc2c[nH]c3ccccc23)NC(=O)[C@H](CCCNC(=N)N)NC(=O)[C@@H](Cc2ccccc2)NC(=O)[C@H](Cc2c[nH]cn2)NC(=O)C(C)(C)NC1=O [CTX-1296, Arg-cyclo(Cys-Aib-His-D-Phe-Arg-D-Trp-Cys)] | 93 | 10 | 22 | 99 | 11 | – | – | –
C[C@H]1NC(=O)CSC[C@@H](C(N)=O)NC(=O)[C@H](Cc2c[nH]c3ccccc23)NC(=O)[C@H](CCCNC(=N)N)NC(=O)[C@@H](Cc2ccccc2)NC(=O)[C@H](CCCNC(N)=O)NC1=O [CTX-1643, Thioether-cyclo(D-Ala-Cit-D-Phe-Arg-Trp-Cys)] ({CH2CO}-[dA][Cit][dF]RWC-NH2; thioether N-6) | 81 | – | 133 | 111 | 261 | – | – | –
C[C@H]1NC(=O)CSC[C@@H](C(N)=O)NC(=O)[C@H](Cc2c[nH]c3ccccc23)NC(=O)[C@H](CCCNC(=N)N)NC(=O)[C@@H](Cc2ccccc2)NC(=O)[C@H](Cc2c[nH]cn2)NC1=O [CTX-1202, Thioether-cyclo((D-Ala-His-D-Phe-Arg-Trp-Cys)] | 101 | – | 76 | 104 | 0.89 | – | – | –
C[C@H]1NC(=O)CSC[C@@H](C(N)=O)NC(=O)[C@H](Cc2c[nH]c3ccccc23)N(C)C(=O)[C@H](CCCNC(=N)N)NC(=O)[C@@H](Cc2ccccc2)NC(=O)[C@H](Cc2c[nH]cn2)N(C)C1=O [CTX-1203, Thioether-cyclo(D-Ala-Nme-His-D-Phe-Arg-Nme-Trp-Cys)] ({CH2CO}-[dA][NMeH][dF]R[NMeW]C-NH2; thioether N-6) | 107 | – | 161 | 109 | 2.32 | 16 | – | –
C[C@H]1NC(=O)CSC[C@@H](C(N)=O)NC(=O)[C@H](Cc2ccccc2)NC(=O)[C@H](CCCNC(=N)N)NC(=O)[C@@H](Cc2ccccc2)NC(=O)[C@H](CCCNC(N)=O)NC1=O [CTX-1658, Thioether-cyclo(D-Ala-Cit-D-Phe-Arg-Phe-Cys)] ({CH2CO}-[dA][Cit][dF]RFC-NH2; thioether N-6) | – | > 10000 | Not active | – | Not active | > 10000 | – | –
N=C(N)NCCC[C@@H]1NC(=O)CNC(=O)CSC[C@@H](C(N)=O)NC(=O)[C@H](Cc2c[nH]c3ccccc23)NC(=O)[C@H](CCCNC(=N)N)NC(=O)[C@@H](Cc2ccccc2)NC1=O [CTX-1645, Thioether-cyclo(Gly-Arg-D-Phe-Arg-Trp-Cys)] ({CH2CO}-GR[dF]RWC-NH2; thioether N-6) | 97 | 68 | 42 | 110 | 9.04 | 1.6 | – | –
CCCC[C@H](NC(=O)[C@H](CCCNC(=N)N)NC(C)=O)C(=O)N[C@H]1CSSC[C@@H](C(N)=O)NC(=O)[C@H](Cc2ccccc2)NC(=O)[C@H](CCCNC(=N)N)NC(=O)[C@@H](Cc2ccccc2)NC(=O)[C@H](CCCNC(N)=O)NC1=O [CTX-1626, Arg-Nle-cyclo(Cys-Cit-D-Phe-Arg-Phe-Cys)] (Ac-R[Nle]C[Cit][dF]RFC-NH2; disulfide 3-8 (inferred)) | 51 | – | 1.6 | 83 | 3.05 | – | – | –
CC(=O)N[C@@H](CCCNC(=N)N)C(=O)N[C@H]1CSSC[C@@H](C(N)=O)NC(=O)[C@H](Cc2c[nH]c3ccccc23)NC(=O)[C@H](CCCNC(=N)N)NC(=O)[C@@H](Cc2ccccc2)NC(=O)[C@H](Cc2c[nH]cn2)NC(=O)C(C)(C)NC1=O [CTX-1291, Arg-cyclo(Cys-Aib-His-D-Phe-Arg-Trp-Cys)] | 91 | – | 7.99 | 98 | 1.31 | – | – | –
CC(=O)N[C@H]1CSSC[C@@H](C(N)=O)NC(=O)[C@H](Cc2ccccc2)NC(=O)[C@H](CCCNC(=N)N)NC(=O)[C@@H](Cc2ccccc2)NC(=O)[C@H](CCCNC(=N)N)NC(=O)C(C)(C)NC1=O [CTX-1635, cyclo(Cys-Aib-Arg-D-Phe-Arg-Phe-Cys)] (Ac-C[Aib]R[dF]RFC-NH2; disulfide 1-7 (inferred)) | 70 | – | 5.7 | 112 | 1.19 | – | – | –
CC(=O)N[C@H]1CSSC[C@@H](C(N)=O)NC(=O)[C@H](Cc2c[nH]c3ccccc23)NC(=O)[C@H](CCCNC(=N)N)NC(=O)[C@@H](Cc2ccccc2)NC(=O)[C@H](Cc2c[nH]cn2)NC(=O)C(C)(C)NC1=O [CTX-1631, cyclo(Cys-Aib-His-D-Phe-Arg-Trp-Cys)] | 100 | – | 6.91 | 107 | 4.09 | – | – | –
CC(=O)N[C@@H](CCCNC(=N)N)C(=O)N[C@H]1CSSC[C@@H](C(N)=O)NC(=O)[C@H](Cc2ccccc2)NC(=O)[C@H](CCCNC(=N)N)NC(=O)[C@@H](Cc2ccccc2)NC(=O)[C@H](Cc2cccnc2)NC(=O)C(C)(C)NC1=O [CTX-1605, Arg-cyclo(Cys-Aib-Pal(3′)-D-Phe-Arg-Phe-Cys)] (Ac-RC[Aib][3Pal][dF]RFC-NH2; disulfide 2-8 (inferred)) | – | > 10000 | >300 | 85 | 0.14 | – | – | –
CC(=O)N[C@@H](CCCNC(=N)N)C(=O)N[C@H]1CSSC[C@@H](C(N)=O)NC(=O)[C@@H](Cc2ccccc2)NC(=O)[C@H](CCCNC(=N)N)NC(=O)[C@@H](Cc2ccccc2)NC(=O)[C@H](CCCNC(=N)N)NC(=O)[C@@H](C)NC1=O [CTX-1265, Arg-cyclo(Cys-D-Ala-Arg-D-Phe-Arg-D-Phe-Cys)] (Ac-RC[dA]R[dF]R[dF]C-NH2; disulfide 2-8 (inferred)) | – | – | 0.04 | – | 0.02 | – | (60%) | (71%)
CC(=O)N[C@@H](CCCNC(=N)N)C(=O)N[C@H]1CSSC[C@@H](C(N)=O)NC(=O)[C@@H](Cc2c[nH]c3ccccc23)NC(=O)[C@H](CCCNC(=N)N)NC(=O)[C@@H](Cc2ccccc2)NC(=O)[C@H](CCCNC(=N)N)NC(=O)[C@H](C)N(C)C1=O [CTX-1269, Arg-cyclo(Cys-NMe-Ala-Arg-D-Phe-Arg-D-Trp-Cys)] (Ac-RC[NMeA]R[dF]R[dW]C-NH2; disulfide 2-8 (inferred)) | 39 | – | 9.31 | 92 | 2.56 | 13 | – | –
CC(=O)N[C@@H](CCCNC(=N)N)C(=O)N[C@H]1CSSC[C@@H](C(N)=O)NC(=O)[C@@H](Cc2ccccc2)NC(=O)[C@H](CCCNC(=N)N)NC(=O)[C@@H](Cc2ccccc2)NC(=O)[C@H](CCCNC(=N)N)NC(=O)[C@@H](C)NC1=O [CTX-1257, Arg-cyclo(Cys-D-Ala-Arg-D-Phe-Arg-D-Phe-Cys)] (Ac-RC[dA]R[dF]R[dF]C-NH2; disulfide 2-8 (inferred)) | – | – | 0.06 | – | 0.02 | 692 | (88%) | (94%)
